Test results: US6683184B2, “Piperazine derivatives and process for the preparation thereof” (Samjin Pharmaceutical Co., Ltd., priority 1999, dated 2004)
Converted amounts (≈) assume the structure as drawn.

Tests used:
Format in all cases: cell-based
[1] = tested on: A549 (human non-small lung cell); assay: In vitro antitumor effect against human tumor cell lines, SRB assay, A549; conditions: A549 cells, 48 hours; for IC50: Homo sapiens, read-out: ED50 A 549
Protocol: (§1) In vitro antitumor effect against human tumor cell lines.
(§2) a. Human solid tumor cell lines, A549(non-small lung cell), SKMEL-2(melanoma), HCT-15(colon), SKOV-3(ovarian), XF-498(CNS) were cultured at 37° C. in 5% CO2 incubators using RPMI 1640 media containing 10% FBS, while they were transfer-cultured successively once or twice per week. Cell cultures were dissolved in a solution of 0.25% trypsin and 3 mM CDTA PBS(−) and then cells were separated from media which the cells were sticked on.
(§3) b. 5×10^3˜2×10^4 cells were added into each well of 96-well plate and cultured in 5% CO2 incubator, at 37° C., for 24 hours.
(§4) c. Each sample drug was dissolved in a little DMSO and diluted with the used medium to a prescribed concentration for experiments, wherein the final concentration of DMSO was controlled below 0.5%.
(§5) d. Medium of each well cultured for 24 hours as above b. was removed by aspiration. Each 200 μl of drug samples prepared in c. was added into each well and the wells were cultured for 48 hours. Tz(time zero) plates were collected at the point of time drugs were added.
(§6) e. According to the SRB assay method, cell fixing with TCA, staining with 0.4% SRB solution, washing with 1% acetic acid and elution of dye with 10 mM Tris solution were carried out on Tz plates and culture-ended plates, whereby OD values were measured at 520 nm.
(§7) a. Time zero(Tz) value was determined with measuring the SRB protein amounts of the Tz plates collected at the point of time drugs were added.
(§8) b. Control value(C) was determined with the OD values of wells untreated with a drug.
(§9) c. Drug-treated test value(T) was determined with the OD values of drug-treated wells.
(§10) d. Effects of drugs were estimated with growth stimulation, net growth inhibition, net killing etc., being calculated from Tz, C and T.
(§11) e. If T≧Tz, cellular response function was calculated by 100×(T−Tz)/(C−Tz), and if T<Tz, by 100×(T−Tz)/Tz.

[2] = tested on: SKOV-3 (human ovarian); assay: In vitro antitumor effect against human tumor cell lines, SRB assay, SKOV-3; conditions: SK-OV-3 cells, 48 hours; for IC50: Homo sapiens, read-out: ED50 SK-OV-3
Protocol: as §1, §2, §3, §4, §5, §6, §7, §8, §9, §10, §11

[3] = tested on: SKMEL-2 (human melanoma); assay: In vitro antitumor effect against human tumor cell lines, SRB assay, SKMEL-2; conditions: SK-MEL-2 cells, 48 hours; for IC50: Homo sapiens, read-out: ED50 SK-MEL-2
Protocol: as §1, §2, §3, §4, §5, §6, §7, §8, §9, §10, §11

[4] = tested on: XF 498 (human CNS); assay: In vitro antitumor effect against human tumor cell lines, SRB assay, XF 498; conditions: 48 hours; for ED50 XF-498: XF-498 cells; for IC50: Homo sapiens, XF498, XF-498 cells, read-out: ED50 XF-498
Protocol: as §1, §2, §3, §4, §5, §6, §7, §8, §9, §10, §11

[5] = tested on: HCT-15 (human colon); assay: In vitro antitumor effect against human tumor cell lines, SRB assay, HCT-15; conditions: HCT 15 cells, 48 hours; for IC50: Homo sapiens, read-out: ED50 HCT 15
Protocol: as §1, §2, §3, §4, §5, §6, §7, §8, §9, §10, §11

| Molecule | ED50 A 549 [1] | ED50 SK-OV-3 [2] | ED50 SK-MEL-2 [3] | ED50 XF-498 [4] | ED50 HCT 15 [5] | IC50 [1] | IC50 [2] | IC50 [3] | IC50 [4] | IC50 [5] |
| --- | --- | --- | --- | --- | --- | --- | --- | --- | --- | --- |
| COc1cc(OC)cc(N2CCN(C(=Nc3cc(C)c(C)cc3OC)NO)CC2)c1 [Example 181, N-Hydroxy-N′-(4,5-dimethyl-2-methoxyphenyl-1-yl)-[4-(3,5-dimethoxyphenyl)piperazin-1-yl]carboxyimidamide] | 130 ng/mL (≈ 0.314 µM) | 60 ng/mL (≈ 0.145 µM) | 110 ng/mL (≈ 0.265 µM) | 40 ng/mL (≈ 0.0965 µM) | 20 ng/mL (≈ 0.0483 µM) |  |  |  |  |  |
| COc1nc(C)c(C)nc1NC(=O)N1CCN(c2ccccc2SC)CC1 [Example 14, 1-[(5,6-Dimethyl-2-methoxypyrazin-3-yl)aminocarbonyl]-4-(2-methylthiophenyl)piperazine] |  |  |  |  |  | 204 ng/mL (≈ 0.526 µM) | 677 ng/mL (≈ 1.75 µM) | 283 ng/mL (≈ 0.73 µM) | 340 ng/mL (≈ 0.877 µM) | 67 ng/mL (≈ 0.173 µM) |
| COc1nc2ccccc2nc1NC(=O)N1CCN(c2ccccc2SC)CC1 [Example 51, 1-[(2-Methoxyquinoxalin-3-yl)aminocarbonyl]-4-(2-methylt-hiophenyl)piperazine] | 370 ng/mL (≈ 0.904 µM) | 680 ng/mL (≈ 1.66 µM) | 280 ng/mL (≈ 0.684 µM) | 630 ng/mL (≈ 1.54 µM) | 180 ng/mL (≈ 0.44 µM) |  |  |  |  |  |
| COc1cc(OC)cc(N2CCN(C(=Nc3cc(CO)c(C)nc3OC)NO)CC2)c1 [Example 125, N-Hydroxy-N′-(5-hydroxymethyl-2-methoxy-6-methylpyridin-3-yl)-[4-(3,5-dimethoxyphenyl)piperazin-1-yl]carboxyimidamide] | 0.9 ng/mL (≈ 0.00209 µM) | 0.8 ng/mL (≈ 0.00185 µM) | 0.1 ng/mL (≈ 0.000232 µM) | 0.1 ng/mL (≈ 0.000232 µM) | 0.1 ng/mL (≈ 0.000232 µM) |  |  |  |  |  |
| COc1cc(OC)cc(N2CCN(C(=Nc3cc(C)c(C)nc3OC)NO)CC2)c1 [Example 101, N-Hydroxy-N′-(5,6-dimethyl-2-methoxypyridin-3-yl)-[4-(3,5-dimethoxyphenyl)piperazin-1-yl]carboxyimidamide] | 0.3 ng/mL (≈ 0.000722 µM) | 0.3 ng/mL (≈ 0.000722 µM) | 0.3 ng/mL (≈ 0.000722 µM) | 0.2 ng/mL (≈ 0.000481 µM) | 0.1 ng/mL (≈ 0.000241 µM) |  |  |  |  |  |
| COc1nc(C)c(C(C)=O)cc1N=C(NO)N1CCN(c2cc(C)cc(C)c2)CC1 [Example 132, N-Hydroxy-N′-(5-acetyl-2-methoxy-6-methylpyridin-3-yl)-[4-(3,5-dimethylphenyl)piperazin-1-yl]carboxyimidamide] | 11 ng/mL (≈ 0.0267 µM) | 7 ng/mL (≈ 0.017 µM) | 1 ng/mL (≈ 0.00243 µM) | 2 ng/mL (≈ 0.00486 µM) | 1 ng/mL (≈ 0.00243 µM) |  |  |  |  |  |
| COc1nc2ccccc2cc1N=C(NO)N1CCN(c2cccc(Cl)c2)CC1 [Example 176, N-Hydroxy-N′-(2-methoxyquinolin-3-yl)-[4-(3-chlorophenyl)-piperazin-1-yl]carboxyimidamide] | 1.2 ng/mL (≈ 0.00291 µM) | 0.9 ng/mL (≈ 0.00219 µM) | 0.3 ng/mL (≈ 0.000728 µM) | 0.1 ng/mL (≈ 0.000243 µM) | 0.1 ng/mL (≈ 0.000243 µM) |  |  |  |  |  |
| COc1cc(OC)cc(N2CCN(C(=Nc3cc(C(C)O)c(C)nc3OC)NO)CC2)c1 (stereo not shown) [Example 139, N-Hydroxy-N′-[5-(1-hydroxyethyl)-2-methoxy-6-methylpyridin-3-yl]-[4-(3,5-dimethoxyphenyl)piperazin-1-yl]carboxyimidamide] | 0.7 ng/mL (≈ 0.00157 µM) | 0.7 ng/mL (≈ 0.00157 µM) | 0.2 ng/mL (≈ 0.000449 µM) | 0.3 ng/mL (≈ 0.000673 µM) | 0.4 ng/mL (≈ 0.000898 µM) |  |  |  |  |  |
| CCc1ccccc1N1CCN(C(=O)Nc2nc3ccccc3nc2OC)CC1 [Example 39, 1-[(2-Methoxyquinoxalin-3-yl)aminocarbonyl]-4-(2-ethylphenyl)piperazine] |  |  |  |  |  | 100 ng/mL (≈ 0.255 µM) | 330 ng/mL (≈ 0.843 µM) | 70 ng/mL (≈ 0.179 µM) | 140 ng/mL (≈ 0.358 µM) | 60 ng/mL (≈ 0.153 µM) |
| 1-[(5,6-Dichloroethyl-2-methoxypyrazin-3-yl)aminocarbonyl]-4-(3,5-dimethylphenyl)piperazine [Example 34] | 2.3 ng/mL | 3.8 ng/mL | 0.3 ng/mL | 2.1 ng/mL | 2.1 ng/mL |  |  |  |  |  |
| CCc1ccccc1N1CCN(C(=O)Nc2nc(C)c(C)nc2OC)CC1 [Example 4, 1-[(5,6-Dimethyl-2-methoxypyrazin-3-yl)aminocarbonyl]-4-(2-ethylphenyl)piperazine] |  |  |  |  |  | 47 ng/mL (≈ 0.127 µM) | 251 ng/mL (≈ 0.679 µM) | 42 ng/mL (≈ 0.114 µM) | 89 ng/mL (≈ 0.241 µM) | 38 ng/mL (≈ 0.103 µM) |
| COC(=O)c1cc(N=C(NO)N2CCN(c3cc(F)cc(F)c3)CC2)c(OC)nc1C [Example 120, N-Hydroxy-N′-(5-methoxycarbonyl-2-methoxy-6-methylpyridin-3-yl)-[4-(3,5-difluorophenyl)piperazin-1-yl]carboxyimidamide] | 640 ng/mL (≈ 1.47 µM) | 730 ng/mL (≈ 1.68 µM) | 280 ng/mL (≈ 0.643 µM) | 820 ng/mL (≈ 1.88 µM) | 300 ng/mL (≈ 0.689 µM) |  |  |  |  |  |
| COc1cc(OC)cc(N2CCN(C(=Nc3cc(C(C)=O)c(C)nc3OC)NO)CC2)c1 [Example 133, N-Hydroxy-N′-(5-acetyl-2-methoxy-6-methylpyridin-3-yl)-[4-(3,5-dimethoxyphenyl)piperazin-1-yl]carboxyimidamide] | 0.1 ng/mL (≈ 0.000225 µM) | 0.1 ng/mL (≈ 0.000225 µM) | 0.1 ng/mL (≈ 0.000225 µM) | 0.1 ng/mL (≈ 0.000225 µM) | 0.1 ng/mL (≈ 0.000225 µM) |  |  |  |  |  |
| COc1cc2ccccc2cc1NC(=O)N1CCN(c2cc(C)cc(C)c2)CC1 [Example 86, 1-[(2-Methoxynaphth-3-yl)aminocarbonyl]-4-(3,5-dimethylphenyl)piperazine] |  |  |  |  |  | 40 ng/mL (≈ 0.103 µM) | 80 ng/mL (≈ 0.205 µM) | 30 ng/mL (≈ 0.077 µM) | 40 ng/mL (≈ 0.103 µM) | 60 ng/mL (≈ 0.154 µM) |
| COc1cc(C)c(C)cc1N=C(NO)N1CCN(c2ccccc2)CC1 [Example 177, N-Hydroxy-N′-(4,5-dimethyl-2-methoxyphenyl-1-yl)-(4-phenylpiperazin-1-yl)carboxyimidamide] | 0.6 ng/mL (≈ 0.00169 µM) | 0.8 ng/mL (≈ 0.00226 µM) | 0.3 ng/mL (≈ 0.000846 µM) | 0.4 ng/mL (≈ 0.00113 µM) | 0.1 ng/mL (≈ 0.000282 µM) |  |  |  |  |  |
| COc1cc(OC)cc(N2CCN(C(=O)Nc3cc4ccccc4cc3OC)CC2)c1 [Example 87, 1-[(2-Methoxynaphth-3-yl)aminocarbonyl]-4-(3,5-dimethoxyphenyl)piperazine] |  |  |  |  |  | 10 ng/mL (≈ 0.0237 µM) | 30 ng/mL (≈ 0.0712 µM) | 660 ng/mL (≈ 1.57 µM) | 80 ng/mL (≈ 0.19 µM) | 8 ng/mL (≈ 0.019 µM) |
| COc1nc(C)c(C)cc1N=C(NO)N1CCN(c2cc(CO)cc(CO)c2)CC1 [Example 107, N-Hydroxy-N′-(5,6-dimethyl-2-methoxypyridin-3-yl)-{4-[3,5-bis-(hydroxymethyl)phenyl]piperazin-1-yl}carboxyimidamide] | 32 ng/mL (≈ 0.077 µM) | 13 ng/mL (≈ 0.0313 µM) | 5 ng/mL (≈ 0.012 µM) | 8 ng/mL (≈ 0.0193 µM) | 9 ng/mL (≈ 0.0217 µM) |  |  |  |  |  |
| COc1cc(C)c(C)cc1N=C(NO)N1CCN(c2cc(C)cc(C)c2)CC1 [Example 180, N-Hydroxy-N′-(4,5-dimethyl-2-methoxyphenyl-1-yl)-[4-(3,5-dimethylphenyl)piperazin-1-yl]carboxyimidamide] | 280 ng/mL (≈ 0.732 µM) | 160 ng/mL (≈ 0.418 µM) | 310 ng/mL (≈ 0.81 µM) | 240 ng/mL (≈ 0.627 µM) | 160 ng/mL (≈ 0.418 µM) |  |  |  |  |  |
| COc1nc2ccccc2nc1NC(=O)N1CCN(c2ccccc2C(C)C)CC1 [Example 40, 1-[(2-Methoxyquinoxalin-3-yl)aminocarbonyl]-4-(2-isoprop-ylphenyl)piperazine] |  |  |  |  |  | 410 ng/mL (≈ 1.01 µM) | 1010 ng/mL (≈ 2.49 µM) | 370 ng/mL (≈ 0.912 µM) | 810 ng/mL (≈ 2 µM) | 390 ng/mL (≈ 0.962 µM) |
| COc1nc2ccccc2nc1NC(=O)N1CCN(c2cc(F)cc(F)c2)CC1 [Example 46, 1-[(2-Methoxyquinoxalin-3-yl)aminocarbonyl]-4-(3,5-difluo-rophenyl)piperazine] | 2 ng/mL (≈ 0.00501 µM) | 7 ng/mL (≈ 0.0175 µM) | 3 ng/mL (≈ 0.00751 µM) | 1 ng/mL (≈ 0.0025 µM) | 2 ng/mL (≈ 0.00501 µM) |  |  |  |  |  |
